Data on one molecule can be found in US20210267948A1, “TREATMENT OF CANCER” (CITY OF HOPE, priority 2017, published 2021).

The NOAEL is the highest tested level that showed no adverse finding. For orientation: AUC means the area under the concentration-time curve, a measure of exposure.

One data set concerns the target T1, PARP1 (Homo sapiens, UniProt P09874).
T1 construct: endogenous in cells; host or cells: HCC1937, HCC1937+BRCA1, UWB1.289 and UWB1.289+BRCA1 human cancer cells (lysates)
Nature of the data set: PARP1 Chemiluminescent Assay on lysates of treated cells. It is filed as cell-based. The procedure:
(§1) The PARP1 activity was determined using the PARP1 Chemiluminescent Assay Kit (BPS Bioscience, San Diego) according to the manufacturer's protocol. Briefly, the ribosylation reaction was carried out with activated DNA in PARP assay buffer using test inhibitor, positive control, substrate control and blank reactions, for 1 hour at 25° C. Detection was by streptavidin-HRP with chemiluminescent substrate A and B read in a luminometer. NZebrafish (Danio rerio) were obtained from zebrafish Core facility of Taipei Medical University and maintained at 28° C. on a 14 h light/10 h dark cycle. Embryos were incubated at 28° C. and different developmental stages were determined as described (25). Wild-type embryos were treated with different concentrations of HU (0, 5, 10, 20, 50 mM) or COH29 (0, 10, 20, 50, 100 μM) at 20 hpf to evaluate the mutagenic effect. Fifteen embryos were treated per well condition. […] Embryos were observed using an Olympus IX70-FLA inverted fluorescence microscope. Images were taken using SPOT digital camera system (Diagnostic Instruments, Sterling Heights, Mich., USA) and assembled with Image) software (26).
To determine if COH29 inhibited hPARP1, PARP1 activity was examined in lysates of cells treated with or without COH29 for 4 h, 8 h or 24 h.

Data set [1] can be described thus: GLP toxicity study in dogs. It is filed as in vivo. The following applies: for Toxicity: Beagles, top dose 42 mg/kg. From the text: Toxicity studies in rats and dogs at doses equivalent to 10× that dose have not shown toxicity at 10 or 21 days.
Data set [2] is described as follows: Exposure in animal toxicology studies. The note with it: in vivo, read-out: AUC, maximum level observed. The procedure: Maximum dose level is capped at 2400 mg/day (Dose Level 8) corresponding to closest highest level achieved in animal studies. […] Intrapatient dose escalation is permissible if a dose level has been cleared.
The test system of data set [3] is wild-type zebrafish embryos. Nature of the data set: Zebrafish genotoxicity assay. The note with it: embryos treated 1 to 7 dpf, COH29 0-100 μM. It is filed as in vivo, Danio rerio. The procedure:
as §1
To assess the genotoxicity of COH29, wild-type zebrafish embryos were treated from 1 to 7 dpf (day post-fertilization) with a range of doses of COH29 (0-100 μM) and compared to embryos similarly treated with HU (0-50 mM) which is known to cause developmental defects.

A short description of data set [4]: First-in-human Phase I dose escalation safety study. It is filed as in vivo. From the text: First-in-human Phase I, single site, dose escalation, safety study.
Inclusion Criteria: (1) Male and female patients≥18 years of age with advanced, histologically confirmed solid tumors refractory to standard therapy or for which no standard therapy exists; (2) Patients must have measurable or evaluable disease; (3) Patients may be entered if they have received prior radiation therapy involving ≤30% of the bone marrow; (4) Patients may be enrolled with a history of treated brain metastases that are clinically stable for ≥4 weeks prior to enrollment; (5) ECOG Performance Status of ≤2; (6) Life expectancy of greater than 12 weeks as determined by treating clinician assessment; and (7) Adequate organ function per standard laboratory assessments.
Exclusion Criteria: (1) Patients must not have received prior chemotherapy or radiation for ≥4 weeks before study treatment initiation; (2) Patients unable or unwilling to swallow pill; (3) Active heart disease including myocardial infarction within previous 3 months, symptomatic coronary artery disease or heart block, or uncontrolled congestive heart failure; and (4) Women who are pregnant or actively breast-feeding.
Intrapatient dose escalation is allowed and design reverts to standard 3+3 if 2 moderate toxicities or 1 dose limiting toxicity (DLT) is encountered.
With respect to the DLT definition, Grade≥3 non-hematological toxicity will be considered dose limiting with the following clarifications: Grade 3 diarrhea will only be considered dose limiting if it is refractory to treatment and unable to be corrected to grade 1 or less within 24 hours. Bloody or grade 4 diarrhea will be dose limiting; Grade 3 nausea and vomiting will only be considered dose limiting if it is refractory to anti-emetic therapy and unable to be corrected to grade 1 or less within 24 hours; Grade 3 rise in creatinine, not corrected to grade 1 or less within 24 hours with IV fluids will be considered dose limiting. All grade 4 rises in creatinine will be dose limiting; and Grade 3 electrolyte toxicities unable to be corrected to grade 1 or baseline within 24 hours will be considered dose limiting. Tumor pain will not be considered dose limiting unless it is refractory to optimal treatment with analgesics. With respect to Grade 4, the following will be considered: Grade 4 thrombocytopenia; Grade 4 neutropenia lasting ≥5 days or febrile neutropenia; Grade 4 hemolysis; Treatment delay>2 weeks as a result of unresolved toxicity; and any degree of anemia, leucopenia in the absence of grade 4 neutropenia lasting ≥5 days, or lymphopenia will not be considered dose limiting.
Patients receive oral COH29 twice a day for 21 days of a 28-day cycle. Dose levels range from 200 to 2400 mg per day of administration. Dose escalation is pursued utilizing a Simon's accelerated titration design, which allows skipping of dose levels (dose doubling) during the accelerated dose-finding phase. PD assessment includes measurement of plasma CK18 levels to determine degree of cellular apoptosis, evaluation of dNTP pool levels in peripheral blood mononuclear cells (PBMCs) to evaluate RNR inhibition, as well as measurement of PAR expression in PBMCs to assess PARP inhibition. Quantitation of tumor RRM2 expression using dual-color immunohistochemistry is explored as a predictive biomarker of anti-tumor response to COH29.

Setting [5] is: HCC1937 lacking BRCA1, 24 h incubation.
Setting [6] is: UWB1.289 lacking BRCA1, 8 h treatment.

T1 sequence (P09874 whole entry): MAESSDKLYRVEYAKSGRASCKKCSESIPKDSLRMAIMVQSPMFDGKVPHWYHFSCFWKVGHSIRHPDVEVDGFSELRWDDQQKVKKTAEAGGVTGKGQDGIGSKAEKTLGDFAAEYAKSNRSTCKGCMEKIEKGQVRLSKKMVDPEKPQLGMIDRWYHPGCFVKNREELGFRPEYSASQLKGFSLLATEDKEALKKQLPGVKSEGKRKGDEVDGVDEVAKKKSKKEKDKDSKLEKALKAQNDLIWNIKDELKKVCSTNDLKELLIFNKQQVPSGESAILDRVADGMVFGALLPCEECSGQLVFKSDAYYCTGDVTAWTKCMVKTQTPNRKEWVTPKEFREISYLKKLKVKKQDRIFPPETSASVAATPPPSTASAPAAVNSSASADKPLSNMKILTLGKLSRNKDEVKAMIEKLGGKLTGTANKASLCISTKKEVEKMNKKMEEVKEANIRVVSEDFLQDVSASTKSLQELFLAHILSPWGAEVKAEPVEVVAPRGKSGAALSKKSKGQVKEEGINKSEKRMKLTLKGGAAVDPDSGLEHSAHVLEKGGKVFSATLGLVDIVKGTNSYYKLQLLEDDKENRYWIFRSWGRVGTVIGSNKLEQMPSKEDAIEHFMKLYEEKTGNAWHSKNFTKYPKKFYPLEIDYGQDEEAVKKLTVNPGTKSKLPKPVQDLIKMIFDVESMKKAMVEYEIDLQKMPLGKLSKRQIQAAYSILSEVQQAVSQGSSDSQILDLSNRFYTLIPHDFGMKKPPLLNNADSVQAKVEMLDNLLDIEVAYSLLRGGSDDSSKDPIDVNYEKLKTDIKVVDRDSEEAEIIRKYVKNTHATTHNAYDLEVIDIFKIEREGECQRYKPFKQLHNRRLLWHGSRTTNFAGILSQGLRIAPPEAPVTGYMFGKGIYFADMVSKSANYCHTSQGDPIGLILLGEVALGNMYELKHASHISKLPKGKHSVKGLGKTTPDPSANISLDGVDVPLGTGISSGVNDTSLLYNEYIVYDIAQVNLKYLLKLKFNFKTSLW

Turning to `O=C(Nc1nc(-c2ccc(O)c(O)c2)c(-c2ccccc2)s1)c1ccc(O)c(O)c1` [COH29, N-(4-(3,4-dihydroxyphenyl)-5-phenylthiazol-2-yl)-3,4-dihydroxybenzamide], the “PARP1 activity decreased by” value at PARP1 (HCC1937+BRCA1, 24 h incubation) was determined as 12.66%; on PARP1 (setting [5]), 41.08%; on PARP1 (setting [6]), 31.79%. The “PARP1 activity, COH29 treated” value is recorded as 2041097 cps on PARP1 (HCC1937+BRCA1, 24 h incubation); 427851 cps at PARP1 (setting [5]); 2129944 cps at PARP1 (UWB1.289+BRCA1, 8 h treatment); 774611 cps at PARP1 (setting [6]). For the same molecule, at PARP1 (UWB1.289+BRCA1, 8 h treatment), the “PARP1 activity rose by” value worked out at 46.31%. For the same molecule, the Toxicity result in data set [1] (10 days) and in data set [1] (21 days) was “none” in each case. For the same molecule, the NOAEL in data set [1] (beagle, dog, in vivo) was determined as 84 mg/kg/day. In addition, the AUC in data set [2] turned out to be 5000 ng·h/mL. Further, in data set [3], the viability of embryos result is reported as “no developmental defects (FIG. 5C) or decrease in viability”. For the same molecule, the developmental defects entry in data set [3] (HU 0-50 mM) is “no developmental defects”. Also, in data set [4] (every patient, cycle 1), the “realtime PK monitoring vs AUC safety threshold” value was “no exceeding of AUC safety threshold”. The “toxicity / DLT” value in data set [4] (first patient, dose level 1, 100 mg twice a day) was “without any DLT”; in data set [4] (fourth patient, dose level 7, 800 mg twice a day), “moderate toxicity of grade 2 diarrhea”; in data set [4] (second patient, dose level 3, 200 mg twice a day), “moderate toxicity of grade 2 skin rash”; in data set [4] (third patient, dose level 5, 400 mg twice a day), “without any DLT”.
